Legend:
[1] = system: preimplantation mouse embryos (C3B6F1); test: TUNEL assay, dead cell index in cultured embryos; type: cell-based; settings: 0.1 μM, 72 hrs of culture
Method: Terminal deoxynucleotidyl transferase mediated dUTP Nick End Labeling (TUNEL) and dead cell index. The embryonic cells that undergo programmed cell death were identified by TUNEL assay using a commercial kit (In Situ Cell Death Detection Kit, Roche Applied Science) with some modifications. At each time point indicated, embryos were collected after culture or harvested from mice and fixed in 4° C. PBS containing 4% buffered paraformaldehyde for 30 min. Prior to TUNEL, the embryos were incubated at 37° C. with 5% triton in PBS for 20 mins. The manufacturer's protocol was modified. Up to 20 blastocysts were incubated at 37° C. in 20 uL of TUNEL reaction solution (2 uL of TUNEL enzyme and 18 uL of 1:4 diluted labeling solution) in a humidified chamber for 60 mins. The embryos were then incubated in DAPI (30 ug/mL) for 5 mins at 37° C. before mounted in 16.6% Elvanol® 50-42 (Dupont, Wilmington, Del., USA) in 0.1 M Tris HCl pH 8.5. The apoptotic cells and the total cells were visualized using a fluorescence microscope (AxioPlan 2, Carl Zeiss, Germany) with FITC and UV filters, respectively. DNAse-treated embryos were used as positive controls. The dead cell index (percent of cells that were TUNEL positive) was determined by dividing the number of TUNEL-positive cells by the number of total cells then multiplies by 100%.

[2] = system: preimplantation mouse embryos (wild type, PPARδ+/+); test: Complete hatching of cultured wild type mouse embryos; type: cell-based; settings: for rate of complete hatching versus control, ligand added at two-cell, eight-cell or morula stage: exposure 0-96, 24-96 and 48-96 hrs; for rate of complete hatching versus control, ligand added at two-cell, eight-cell or morula stage / rate of complete hatching versus control, ligand added at blastocyst stage: read at 96 hrs; for rate of complete hatching versus control, ligand added at blastocyst stage: exposure 72-96 hrs; for proportion of completely hatched embryos: 0.1 μM each ligand from two-cell stage, untreated 30%
Excerpt: (§1) Harvest and culture of mouse embryos. Mice were obtained from the following sources: C3H, 129S1/SvImJ and C57BL6/J, the Jackson laboratory (Bar Harbor, Me., USA); ICR and C57BL6/Nhd, Harlan (Indianapolis, Ind., USA); PPARδ−/−, a gift from Dr. R. Evans (the Salk Institute, La Jolla, Calif.). The wild type (WT) counter parts of PPARδ−/− were bred by mating 129S1/SvImJ and the offspring of C57BL6/J×129S1/SvImJ. Mice were kept in temperature and humidity controlled environment (07:00 light on, 19:00 light off) with free access to food and water. The mouse embryos were harvested and cultured as described previously (Huang et al., 2003). Briefly, three-week old female mice were super-ovulated with intra-peritoneal injection of PMSG (5 IU) followed by hCG (5 IU) 42-46 hrs later. After hCG injection (at 15:00), each female mouse was caged with one male mouse with proven fertility. Unless specified otherwise, embryos (at two-cell stage) were harvested 44-48 hrs later and cultured (17-20 per group) at 37° C. under 5% CO2 in 4-well plates (Nalge Nunc International, Naperville, Ill., USA) containing 600 ul protein-free media. The HTF media (Sage Biopharma, Bedminster, N.J., USA) was used during the first 48 hrs; the αMEM (Irvine Scientific), with Earle's Salts and 2 mM glutamine, was used during the second 48 hrs. After 96 hrs of culture, each embryo was examined for the presence of zona pellucida. Those completely free of the zona pellucida were counted as having completely hatched. The rate of complete hatching was calculated by dividing the number of completely hatched embryos by the number of total embryos. Complete embryo hatching was used as an end point because it is a clear cut endpoint and correlates with the likelihood of implantation and viable pregnancy (Huang et al., 2003; Huang et al., 2004b). The concentration of the vehicle (DMSO) was less than 1:10,000; control embryos received the same concentration of DMSO. Prism® Version 3.0 (GraphPad Software Inc. San Diego, Calif.), with the Hill slope set at 1.0, was used to estimate the ED50 of L-165041. Chi-square and Student's t-tests were used where appropriate (InStat® Version 3.05, GraphPad Software Inc.). A p<0.05 was considered statistically significant.

PPARδ+/+ embryos = test: Developmental stage (blastocyst formation) of cultured embryos at time of transfer; type: cell-based, mouse; settings: wild type two-cell embryos treated 48 h
Excerpt: Harvest and culture of mouse embryos. Mice were obtained from the following sources: C3H, 129S1/SvImJ and C57BL6/J, the Jackson laboratory (Bar Harbor, Me., USA); ICR and C57BL6/Nhd, Harlan (Indianapolis, Ind., USA); PPARδ−/−, a gift from Dr. R. Evans (the Salk Institute, La Jolla, Calif.). The wild type (WT) counter parts of PPARδ−/− were bred by mating 129S1/SvImJ and the offspring of C57BL6/J×129S1/SvImJ. Mice were kept in temperature and humidity controlled environment (07:00 light on, 19:00 light off) with free access to food and water. The mouse embryos were harvested and cultured as described previously (Huang et al., 2003). […] Those completely free of the zona pellucida were counted as having completely hatched. The rate of complete hatching was calculated by dividing the number of completely hatched embryos by the number of total embryos. […]
Embryo transfer was performed as described previously (Huang et al., 2004b). […] Seventy-two h after embryo transfer, the rates of implantation were determined based on a previously-described method with modifications (Paria et al., 1993). […] After the carrier was sacrificed, the uterine horns were opened and the gestation sacs counted. The implantation rate was expressed as percentages of gestation sacs over total embryos transferred. […]

[3] = system: PPARδ+/+ embryos transferred to gestational carriers (ICR female mice); test: Embryo transfer to gestational carriers and determination of implantation rate; type: in vivo, mouse; settings: wild type two-cell embryos treated 48 h, gestation sacs counted 72 h after transfer; control 41%, p<0.05
Method: Embryo transfer was performed as described previously (Huang et al., 2004b). Briefly, embryos were transferred to gestational carriers (ICR female mice) on day 2.5 of pseudopregnancy under a dissecting microscope (Olympus SZ-PT, Shinjuku-ku, Tokyo, Japan). After anesthesia, each uterine horn was accessed via a 1.5 cm flank incision. With the proximal oviduct held by a pair of forceps, an opening was created at the distal end of the uterine horn on the anti-mesenteric side with a 30 gauge needle. […] Up to seven embryos in 1.5 μl transfer medium (MEM with 25 mM HEPES and 1% BSA) were transferred to each horn. After each transfer, the contents of the pipette were examined under a stereomicroscope to identify retained embryos. To avoid the mixing of embryos as a result of embryo crossover (Dr. Andreas Zimmer, University of Bonn, Germany, MG118 List, the Jackson Laboratory), each gestational carrier received only one kind of embryo. […] Seventy-two h after embryo transfer, the rates of implantation were determined based on a previously-described method with modifications (Paria et al., 1993). […] After the carrier was sacrificed, the uterine horns were opened and the gestation sacs counted. The implantation rate was expressed as percentages of gestation sacs over total embryos transferred. […]

[4] = system: preimplantation mouse embryos; test: BrdU uptake, proliferation index and cell number in cultured embryos; type: cell-based
Method: 5-Bromo-2′-deoxy-uridine (BrdU) uptake and the proliferation index. The proliferation of embryonic cells was determined based on their abilities to incorporate BrdU. The assay was performed using a commercial kit (BrdU Labeling and Detection Kit I, Roche Applied Science, Indianapolis, Ind.) according to manufacturer's protocols with some optimizations. One of the changes was the duration of incubation. […] For the comparison between control and L165,041 treated embryos, the optimal time was 6 minutes. The modified procedure is as follows. Immediately after harvest, the embryos were incubated in 100 μl pre-equilibrated HTF medium containing 10 μM BrdU for […] at 37° C. under 5% CO2. Following the incubation, the embryos were fixed in ice-cold glycine (50 mM) in 70% ethanol (pH2.0) at −20° C. for 30 mins. Following rehydration/blocking in phosphate buffered saline (PBS) containing 1% BSA, the embryos were incubated with diluted anti-BrdU mouse monoclonal antibody (1:2) in the incubation buffer containing 1% BSA and followed by another incubation with a diluted FITC-conjugated […] IgG antibody (1:4) in PBS containing 1% BSA. Both incubations were at 37° C. and lasted for 30 mins; the embryos were washed in 200 μl PBS containing 1% BSA after each incubation. After a final incubation in DAPI (5 μg /ml) for 90 mins at 25° C., the embryos were mounted in 0.1 M Tris HCl (pH 8.5) containing 16.6% Elvanol® 50-42 (DuPont Wilmington, Del., USA) and 2.5% 1,4-diazabicyclo-(2.2.2)-octane. Cells that were in S-phase and, therefore, incorporated BrdU were identified under a FITC filter. Total cell number was determined based on DAPI nuclear staining under a UV filter (AxioPlan 2, Carl Zeiss, Germany). The proliferation index (percent of cells in S-phase) was determined by dividing the number of BrdU-positive cells by the number of total cells then multiplies by 100%.
The proliferation of embryonic cells was determined based on their abilities to incorporate BrdU. […] Total cell number was determined based on Hoechst 33258 nuclear staining under a UV filter.

PPARδ−/− embryos = test: Complete hatching of cultured PPARδ−/− mouse embryos; type: cell-based; settings: 96 h; for effect on hatching of PPARδ−/− embryos: 0.1 μM from two-cell stage
Excerpt: as §1, with “DMSO.” for “DMSO. Prism® Version 3.0 (GraphPad Software Inc. San Diego, Calif.), with the Hill slope set at 1.0, was used to estimate the ED50 of L-165041. Chi-square and Student's t-tests were used where appropriate (InStat® Version 3.05, GraphPad Software Inc.). A p<0.05 was considered statistically significant.”

[5] = system: mouse embryos transferred to gestational carriers; settings: treated embryos transferred to gestational carriers; cited from earlier work

SMILES: CCCc1c(OCCCOc2ccc(OCC(=O)O)cc2)ccc(C(C)=O)c1O [L165,041, 4-[3-(4-Acetyl-3-hydroxy-2-propylphenoxy)propoxy]phenoxy-acetic acid]
- dead (apoptotic, TUNEL positive) cells versus control [1]: less dead cells
- complete embryo hatching versus control ([2]; 1 μM ligand, two-cell embryos (C3B6F1), 96 hrs): enhanced complete embryo hatching
- relative risk of complete hatching versus control group ([2]; 1 μM, 96 hrs, 95% confidence interval 1.08-3.36): 1.9
- rate of complete hatching versus control, ligand added at two-cell, eight-cell or morula stage ([2]; 1 μM): significantly higher rates of complete hatching
- rate of complete hatching versus control, ligand added at two-cell, eight-cell or morula stage ([2]; 1 μM, listed as L-165041): effective in stimulating embryo hatching
- rate of complete hatching versus control, ligand added at blastocyst stage ([2]; 1 μM): the difference was not statistically significant
- rate of complete hatching versus control, ligand added at blastocyst stage ([2]; 1 μM, listed as L-165041): no longer effective in stimulating hatching
- EC50 ([2]; Mus musculus, two-cell embryos cultured 96 hrs in different concentrations, estimated, Hill slope 1.0, read-out: ED50 of enhancement of complete embryo hatching): 0.021 µM
- proportion of completely hatched embryos ([2]; wild type embryos, 96 h): 54%
- blastocyst formation versus control (PPARδ+/+ embryos): did not significantly enhance blastocyst formation
- implantation rate (gestation sacs over embryos transferred) [3]: 64%
- cells in the S-phase (BrdU incorporation) versus control ([4]; 0.1 μM, 72 hrs of culture, BrdU 6 minutes): more cells in the S-phase
- average number of cells per embryo ([4]; 0.1 μM, 72 hrs of culture, same in control group): 63
- percentages of BrdU-positive cells over the untreated control ([4]; 10 μM BrdU, wild type embryos): increased the percentages of BrdU-positive cells
- effect on hatching of PPARδ−/− embryos (PPARδ−/− embryos): Neither iloprost nor L-165041 affected the hatching of PPARδ−/− embryos

SMILES: CC#CCC(C)[C@H](O)/C=C/[C@@H]1[C@H]2C/C(=C/CCCC(=O)O)C[C@H]2C[C@H]1O (some centres unmarked) [iloprost]
- proportion of completely hatched embryos ([2]; wild type embryos, 96 h): 50%
- completely hatched embryos versus total embryos ([2]; wild type embryos, 0.1 μM, 96 h): 37/74
- more live births over control embryos [5]: 28%
- effect on hatching of PPARδ−/− embryos (PPARδ−/− embryos): had no effect
- completely hatched embryos versus total embryos (PPARδ−/− embryos; PPARδ−/− embryos, 0.1 μM, untreated 4/144): 3/144

Source: US8632452B2, “Peroxisome proliferator-activator receptor δ (PPARδ) and the development of preimplantation embryos” (Board of Regents of the University of Texas System, priority 2005, dated 2014)
